Test results: patent publication US10513521B2, “Compositions and methods for inhibiting BMP” (The Brigham and Women's Hospital, Inc., priority 2014, dated 2019)

What was measured:
ALK1 = ALK1 (Homo sapiens, UniProt P37023); experiment: TR-FRET enzymatic ALK kinase assay, ALK1
Protocol: (§1) Briefly, the ALKs enzymatic assay was initiated by dispense 2.5 μl enzyme in 1× kinase reaction buffer. The assay plate was then added with compounds followed by incubation at room temperature for 10 minutes. Then 2.5 μl/well substrate was added.

ALK3 = ALK3 (Homo sapiens, UniProt P36894); experiment: TR-FRET enzymatic ALK kinase assay, ALK3
Protocol: as §1

ALK6 = ALK6 (Homo sapiens, UniProt O00238); experiment: TR-FRET enzymatic ALK kinase assay, ALK6
Protocol: as §1

ALK2 = target: T1, ALK2 (Homo sapiens, UniProt Q04771); experiment: TR-FRET enzymatic ALK kinase assay, ALK2
T1 sequence (Q04771 21-509): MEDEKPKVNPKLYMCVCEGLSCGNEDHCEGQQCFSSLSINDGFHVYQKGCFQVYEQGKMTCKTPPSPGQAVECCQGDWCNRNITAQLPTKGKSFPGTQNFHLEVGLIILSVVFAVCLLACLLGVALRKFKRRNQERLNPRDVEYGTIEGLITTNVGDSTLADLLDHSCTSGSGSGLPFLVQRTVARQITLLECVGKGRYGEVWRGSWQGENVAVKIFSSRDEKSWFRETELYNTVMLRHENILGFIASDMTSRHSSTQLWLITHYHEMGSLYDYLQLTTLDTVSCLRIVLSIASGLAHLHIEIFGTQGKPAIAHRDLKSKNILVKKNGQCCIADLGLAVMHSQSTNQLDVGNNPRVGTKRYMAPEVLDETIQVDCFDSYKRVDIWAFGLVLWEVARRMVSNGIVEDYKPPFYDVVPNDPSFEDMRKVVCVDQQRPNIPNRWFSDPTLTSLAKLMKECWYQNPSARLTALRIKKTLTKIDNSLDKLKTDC
Protocol: as §1

ALK4 = target: T2, ALK4 (Homo sapiens, UniProt P36896); experiment: TR-FRET enzymatic ALK kinase assay, ALK4
T2 sequence (P36896 24-505): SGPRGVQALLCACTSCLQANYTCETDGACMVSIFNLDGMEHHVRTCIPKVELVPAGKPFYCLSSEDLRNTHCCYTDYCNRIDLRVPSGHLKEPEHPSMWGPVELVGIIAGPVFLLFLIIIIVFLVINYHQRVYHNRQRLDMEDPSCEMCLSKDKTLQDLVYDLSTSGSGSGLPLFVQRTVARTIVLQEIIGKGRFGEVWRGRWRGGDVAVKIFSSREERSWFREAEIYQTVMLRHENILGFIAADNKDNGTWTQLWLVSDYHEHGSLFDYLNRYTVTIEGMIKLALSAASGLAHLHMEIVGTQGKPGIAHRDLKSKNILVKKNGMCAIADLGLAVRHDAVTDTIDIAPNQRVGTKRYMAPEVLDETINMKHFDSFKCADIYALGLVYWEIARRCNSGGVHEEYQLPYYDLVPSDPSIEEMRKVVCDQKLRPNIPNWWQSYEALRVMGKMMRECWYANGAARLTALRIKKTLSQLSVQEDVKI
Protocol: as §1

ALK5 = target: T3, ALK5 (Homo sapiens, UniProt P36897); experiment: TR-FRET enzymatic ALK kinase assay, ALK5
T3 sequence (P36897 34-503): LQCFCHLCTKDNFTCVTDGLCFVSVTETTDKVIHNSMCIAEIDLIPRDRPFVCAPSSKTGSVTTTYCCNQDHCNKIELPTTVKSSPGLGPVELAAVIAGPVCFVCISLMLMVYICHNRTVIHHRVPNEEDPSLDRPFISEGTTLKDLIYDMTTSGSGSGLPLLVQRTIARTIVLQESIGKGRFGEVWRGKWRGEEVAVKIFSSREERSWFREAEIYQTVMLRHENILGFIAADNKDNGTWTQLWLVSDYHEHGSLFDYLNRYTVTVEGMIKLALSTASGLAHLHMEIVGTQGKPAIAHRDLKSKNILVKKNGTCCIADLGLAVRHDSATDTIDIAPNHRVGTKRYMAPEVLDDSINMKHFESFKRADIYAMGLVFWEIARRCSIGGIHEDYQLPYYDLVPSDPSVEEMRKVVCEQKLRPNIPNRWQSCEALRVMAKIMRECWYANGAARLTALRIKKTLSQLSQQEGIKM
Protocol: Six ALK kinase enzyme assays were developed for determination of compound activities on ALK1, ALK2, ALK3, ALK4, ALK5 and ALK6.
as §1

ALK6, sequence (O00238 14-502): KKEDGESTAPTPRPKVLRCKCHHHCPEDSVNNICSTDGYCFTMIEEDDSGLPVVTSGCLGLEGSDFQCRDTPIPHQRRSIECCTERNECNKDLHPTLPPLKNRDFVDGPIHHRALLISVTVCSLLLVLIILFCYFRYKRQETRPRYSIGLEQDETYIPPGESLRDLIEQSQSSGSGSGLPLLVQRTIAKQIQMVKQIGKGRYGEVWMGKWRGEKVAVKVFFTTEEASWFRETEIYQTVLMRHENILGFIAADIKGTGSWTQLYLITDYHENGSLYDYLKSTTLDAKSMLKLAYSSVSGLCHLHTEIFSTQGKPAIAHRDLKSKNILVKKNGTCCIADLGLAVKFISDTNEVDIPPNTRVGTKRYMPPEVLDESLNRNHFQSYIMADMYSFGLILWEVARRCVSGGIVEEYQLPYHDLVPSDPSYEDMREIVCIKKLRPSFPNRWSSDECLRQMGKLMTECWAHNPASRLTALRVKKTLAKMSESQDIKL
ALK3, sequence (P36894 24-532): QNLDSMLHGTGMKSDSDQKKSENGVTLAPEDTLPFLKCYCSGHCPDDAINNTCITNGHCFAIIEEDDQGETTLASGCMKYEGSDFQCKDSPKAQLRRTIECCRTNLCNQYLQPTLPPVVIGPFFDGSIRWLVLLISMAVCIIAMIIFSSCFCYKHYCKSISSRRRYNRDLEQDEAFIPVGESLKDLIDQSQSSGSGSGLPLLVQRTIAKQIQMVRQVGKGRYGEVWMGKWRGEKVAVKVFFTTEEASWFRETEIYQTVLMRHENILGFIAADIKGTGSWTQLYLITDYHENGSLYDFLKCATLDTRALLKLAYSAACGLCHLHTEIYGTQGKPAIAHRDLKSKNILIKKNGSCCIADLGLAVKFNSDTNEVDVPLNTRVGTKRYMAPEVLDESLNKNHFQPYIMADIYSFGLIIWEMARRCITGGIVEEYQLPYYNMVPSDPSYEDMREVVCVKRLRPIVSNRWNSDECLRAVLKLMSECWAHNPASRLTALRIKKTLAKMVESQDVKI
ALK1, sequence (P37023 22-503): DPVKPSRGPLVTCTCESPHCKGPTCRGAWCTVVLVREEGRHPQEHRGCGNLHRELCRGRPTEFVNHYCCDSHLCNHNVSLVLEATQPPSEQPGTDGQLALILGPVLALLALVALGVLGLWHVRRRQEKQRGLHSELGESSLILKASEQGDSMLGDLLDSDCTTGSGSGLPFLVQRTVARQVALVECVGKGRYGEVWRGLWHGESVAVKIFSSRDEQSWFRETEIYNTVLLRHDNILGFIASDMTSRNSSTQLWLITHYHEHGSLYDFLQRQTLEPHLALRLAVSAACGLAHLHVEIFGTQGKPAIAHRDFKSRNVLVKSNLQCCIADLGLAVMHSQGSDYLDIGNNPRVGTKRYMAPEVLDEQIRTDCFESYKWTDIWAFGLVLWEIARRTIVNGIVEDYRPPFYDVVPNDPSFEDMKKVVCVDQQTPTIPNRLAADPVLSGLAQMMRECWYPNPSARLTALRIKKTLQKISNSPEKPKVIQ

SMILES | IC50 (ALK1) | IC50 (ALK3) | IC50 (ALK6) | IC50 (ALK2) | IC50 (ALK4) | IC50 (ALK5)
CC(O)c1cccc(-c2cnn3cc(-c4ccc(C5CCNC5)cc4)cnc23)c1 (stereo not drawn) [Compound 130, 1-(3-(6-(4-(pyrrolidin-3-yl)phenyl)pyrazolo[1,5-a]pyrimidin-3-yl)phenyl)ethanol] | 0.61 µM | > 10 µM | > 10 µM | 0.13 µM | > 10 µM | > 10 µM
CS(=O)(=O)c1cccc(-c2cnn3cc(-c4ccc(CCN5CCOCC5)cc4)cnc23)c1 [Compound 131, 4-(4-(3-(3-(methylsulfonyl)phenyl)pyrazolo[1,5-a]pyrimidin-6-yl)phenethyl)morpholine] | 0.76 µM | 2.3 µM | 5.1 µM | 0.15 µM | > 10 µM | > 10 µM
CS(=O)(=O)c1cccc(-c2cnn3cc(-c4ccc(CCN5CCC(O)C5)cc4)cnc23)c1 (stereo not drawn) [Compound 132, 1-(4-(3-(3-(methylsulfonyl)phenyl)pyrazolo[1,5-a]pyrimidin-6-yl)phenethyl)pyrrolidin-3-ol] | 0.63 µM | 6.4 µM | > 10 µM | 0.13 µM | > 10 µM | > 10 µM
CS(=O)(=O)c1cccc(-c2cnn3cc(-c4ccc(CCn5ccnc5)cc4)cnc23)c1 [Compound 133, 6-(4-(2-(1H-imidazol-1-yl)ethyl)phenyl)-3-(3-(methylsulfonyl)phenyl)pyrazolo[1,5-a]pyrimidine] | 0.67 µM | > 10 µM | > 10 µM | 0.23 µM | > 10 µM | > 10 µM
CC(O)c1cccc(-c2cnn3cc(-c4ccc(C5CCCCN5)cc4)cnc23)c1 (stereo not drawn) [Compound 135, 1-(3-(6-(4-(piperidin-2-yl)phenyl)pyrazolo[1,5-a]pyrimidin-3-yl)phenyl)ethanol] | 0.67 µM | > 10 µM | > 10 µM | 0.15 µM | > 10 µM | > 10 µM
CS(=O)(=O)c1cccc(-c2cnn3cc(-c4ccc(CCN5CCC(O)CC5)cc4)cnc23)c1 [Compound 140, 1-(4-(3-(3-(methylsulfonyl)phenyl)pyrazolo[1,5-a]pyrimidin-6-yl)phenethyl)piperidin-4-ol] | 0.62 µM | 7.6 µM | > 10 µM | 0.14 µM | > 10 µM | > 10 µM
CS(=O)(=O)c1cccc(-c2cnn3cc(-c4ccc(CCN5CCCC(O)C5)cc4)cnc23)c1 (stereo not drawn) [Compound 141, 1-(4-(3-(3-(methylsulfonyl)phenyl)pyrazolo[1,5-a]pyrimidin-6-yl)phenethyl)piperidin-3-ol] | 0.75 µM | 5.9 µM | > 10 µM | 0.098 µM | > 10 µM | > 10 µM

Now those with a lower IC50 (ALK1), led by results:

IC50 (ALK1) | IC50 (ALK3) | IC50 (ALK6) | IC50 (ALK2) | IC50 (ALK4) | IC50 (ALK5) | SMILES
0.58 µM | 4.9 µM | > 10 µM | 0.11 µM | > 10 µM | > 10 µM | CC(O)c1cccc(-c2cnn3cc(-c4ccc(C5CCCNC5)cc4)cnc23)c1 (stereo not drawn) [Compound 138, 1-(3-(6-(4-(piperidin-3-yl)phenyl)pyrazolo[1,5-a]pyrimidin-3-yl)phenyl)ethanol]
0.37 µM | 4.8 µM | > 10 µM | 0.089 µM | > 10 µM | > 10 µM | CS(=O)(=O)c1cccc(-c2cnn3cc(-c4ccc(C5CCCNC5)cc4)cnc23)c1 (stereo not drawn) [Compound 139, 3-(3-(methylsulfonyl)phenyl)-6-(4-(piperidin-3-yl)phenyl)pyrazolo[1,5-a]pyrimidine]
0.56 µM | 1.6 µM | > 10 µM | 0.11 µM | > 10 µM | > 10 µM | CC(O)c1cccc(-c2cnn3cc(-c4ccc(OCCN5CCCCC5)cc4)cnc23)c1 (stereo not drawn) [Compound 142, 1-(3-(6-(4-(2-(piperidin-1-yl)ethoxy)phenyl)pyrazolo[1,5-a]pyrimidin-3-yl)phenyl)ethanol]
